Experimental findings from US12440471B2, “Compositions and methods for the treatment of bronchopulmonary dysplasia (BPD) and BPD-associated pulmonary hypertension” (AyuVis Research, Inc., priority 2021, dated 2025) are described below.

In data set [1] the test system is hyperoxia-exposed BPD mouse model. The data set can be described thus: BPD mouse model: immunofluorescence (Ki67, PCNA, vWF) and TUNEL staining of lung. It counts as in vivo. The source says:
AVR-48 restored lung morphology and improved alveolar cellular physiology. After assessment of the safety profile of the AVR-48, and confirmation of the ideal dose to be used, the inventors then performed studies to evaluate the therapeutic effect on the lung in the experimental BPD mouse model, as previously described (Bhandari, Choo-Wing et al. 2008, Leary, Das et al. 2019, Das, Acharya et al 2020, Das, Curstedt et al 2020). BPD is characterized by enlarged simplified alveoli with large air sacs, thickened septum, and thin alveolar epithelium (FIG. 2A) accompanied by overall decrease in alveolar cell proliferation, decreased/dysregulated angiogenesis and increased cell death. All these features were restored after injection of 2 doses of AVR-48, IP (10 mg/kg) on days P2 and P4. […] The total inflammatory cells present in the BALF (FIG. 3A) and the total protein content (FIG. 3B)—both increase in BPD, was decreased after treatment with AVR-48. […] To assess cell specificity, the inventors focused on Type I and Type II alveolar epithelial cells (AECs), as they are most relevant to the process of alveolarization, as described in the manuscript. The inventors utilized the receptor for advanced glycation end-products (RAGE) as the preferred marker for Type I AECs and surfactant protein (SP)-C for the Type II AECs. Due to Ki67 and SP-C being raised in the same species, we used proliferating cell nuclear antigen (PCNA) expression—a well-established marker of cell proliferation because cells remain a longer time in the G1/S phase when proliferating—as a preferred marker for proliferating cells. […] There were few cells which were double positive for PCNA as well as RAGE in the RA and RA+AVR-48 groups (FIG. 4C).
(§1) Histology, immunohistochemistry and immunofluorescence. Both the RA control and BPD mice were anesthetized (using an overdose of a cocktail of xylazine-ketamine) and lung and heart tissues were harvested after perfusion and fixed overnight in 4% paraformaldehyde. Fixed tissues were then washed in fresh PBS, dehydrated using 70% ethanol, cleared, and embedded in paraffin to be sectioned and stained with hematoxylin and eosin (H&E) for lung morphometry or immunohistochemistry/immunofluorescence as previously described (Leary, Das et al. 2019, Das, Achaiya et al. 2020, Das, Curstedt et al. 2020). Immunofluorescence staining was done for Ki67 (Abcam, 1:10) and Von Wilebrand Factor (vWF-DAKO, 1:100) on lung paraffin sections following the protocol as described earlier (Leary, Das et al. 2019) while TUNEL staining was done following the manufacturer's instructions (Roche).
For quantification of cell proliferation and cell death, the entire lung section was divided into 3 areas, and the total number of Ki67+ve and TUNEL+ve cells nuclei were counted manually which was normalized with the total number of nuclei to give a percentage of positive cells. For vWF quantification, total number of closed vessels were counted per high power field area in one lung section. A minimum of 3 areas were chosen, and 3-7 animals were used for staining and counting.

Data set [2] has the same test system. The data set can be described thus: Hyperoxia-exposed BPD mouse model: dose response and lung morphometry. It counts as in vivo. Here is the method: Simultaneously, the AVR-48 nanosuspension formulation IN (0.11 mg/kg) was tested as well as in solution form, IP and IV (10 mg/kg) (through the facial vein), and confirmed that all routes of administration gave similar outcomes. […] From the PK study, as described above, the bioavailability of the drug in the plasma and lungs were similar when delivered as solution formulation via either IN or IP routes. As the goal of this study is to develop AVR-48 as a commercially viable and applicable therapeutic candidate for BPD, the IP route was selected as the preferred mode of drug delivery in neonatal murine pups, with the rationale that it would be easier to deliver the drug systemically to preterm babies IV, rather than the IN route. The results and outcome of all the routes of administration have been presented in a cumulative manner, as the endpoint was similar for all routes of administration. […] FIG. 1 is a dose response study of AVR-48 at different doses of […], given IP. ****p<0.0001. N=5-7 mice per group. 10 mg/kg (IP) was selected as the most efficacious dose. IP: intraperitoneal; Hyp: hyperoxia; BPD: Bronchopulmonary dysplasia.
Formulation of AVR-48 for efficacy and toxicokinetic studies. For the mouse dose response efficacy studies, AVR-48 was reconstituted in 0.9% sterile normal saline to give a final dose concentration of […] as a colorless solution, and injected IP (30 μl) on P2 and P4. The PLGA encapsulated AVR-48 or the GFP-tagged analog was resuspended in deionized sterile water to make a nanosuspension with final dose concentration of 0.025, 0.05 and 0.11 mg/kg/drop. The surfactant Curosurf® (Cheisi Parma, Italy), available commercially, was delivered IN at a volume of 3 μl per nostril, on P2 and P4. For the toxicokinetic study of AVR-48 in rat pups, a formulation of 10% DMSO, 20% tetraglycol, 20% PEG 400, and 50% sterile water was made fresh before administration (Shah, Das et al. 2021).
For the hyperoxia experiment, newborn pups were exposed to 100% hyperoxia (P0), along with their mothers, in cages in an airtight Plexiglas chamber (OxyCycler; Biospherix, Redfield, NY, USA) as described previously by the present inventors (Syed, Das et al., 2017, Leary, Das et al. 2019, Das, Acharya et al. 2020, relevant portions incorporated herein) for 4 consecutive days (till P4) and removed to RA on P5 to be recovered till P14, so as to emulate the human BPD condition. All pups were sacrificed on P14 for further experimental analyses. The pups without any hyperoxia exposure served as the corresponding RA (normoxia) controls.
as §1
Morphometry and quantification. To study chord length, septal thickness and radial alveolar count in the lungs, RV, LV and IVS thickness, 5 μm-thick left-lobe lung and heart paraffin-embedded sections were stained with H&E. Multiple randomly chosen areas (at least 10 areas) from each section were photographed using 100× total magnification. […]

The subject of data set [3] is human lung alveolar type I epithelial cells (AT1). The data set can be described thus: TNF-α and nitric oxide in human lung alveolar type I epithelial cells co-treated with LPS. It counts as cell-based.
Where [4] appears, read: 2 doses IP 10 mg/kg on P2 and P4, comparable to RA controls.
Where [5] appears, read: IP dosing, doses 0.5, 2.0, 5.0 and 10 mg/kg.

Bounds are passed on as bounds.

Consider `CC(=O)N[C@@H]1C(Oc2ccc([N+](=O)[O-])cc2)OC(CO)C(O)C1O` (stereo partly shown) [AVR-48], for which the “cell proliferation (Ki67 immunostaining)” value in data set [1] (10 mg/kg IP P2 and P4, vs BPD) is given as “revival in cell proliferation”. Further, the “RAGE+ve cells co-localization with PCNA (Type I AECs)” value in data set [1] (BPD or BPD+AVR-48 groups) is given as “did not co-localize with PCNA”. Moreover, the “cells co-localizing SP-C and PCNA (proliferating Type II AECs)” value in data set [1] (BPD vs RA, RA+AVR-48, BPD+AVR-48) was “less in the BPD group as compared to RA, RA+AVR-48 and BPD+AVR-48 groups”. Further, in data set [1] (vs BPD group), the “blood vessels (vWF immunostaining)” value was “showed improvement” and the “cell death (TUNEL staining, cleaved caspase 3 immunoblotting)” value is listed as “decrease in cell death”. Further, the “prevention of the BPD phenotypes” value in data set [2] (10 mg/kg IP) is recorded as over 80%. In data set [2] (setting [4]), the “chord length (alveolar sacs)” value is “regained their normal shape and size”; the “septal thickness (alveolar sacs)” value is “regained their normal shape and size”. The “radial alveolar counts (RAC)” value in data set [2] (2 doses IP 10 mg/kg on P2 and P4, vs BPD) is listed as “improved”. Further, in data set [2] (AVR-48 administered adjuvantly with CS (Curosurf IN)), the chord length result was “normal”. Besides, in data set [2] (AVR-48 administered adjuvantly with CS in mouse pups), the “interaction between the drug and CS” value is reported as “no adverse effect”. For the same compound, in data set [2] (setting [5]), the minimum efficacious dose is listed as 5.0 mg/kg and the “optimum / most efficacious dose” value is 10 mg/kg. Also, the minimum efficacious dose in data set [2] (juvenile mouse) stood at 5 mg/kg/day. Further, the “inflammatory cytokines in neonatal mouse pups with BPD” value in data set [2] (mouse, in vivo) is “decrease inflammatory cytokines”. In addition, the “nitric oxide (NO) production” value in data set [3] (co-treated with LPS) was “decreased”. Besides, the TNF-α production entry in data set [3] (co-treated with LPS, ELISA) was “decreased”. In addition, in data set [3] (epithelial cells), the IL-10 level result is given as “No significant level” and the IL-β level result is reported as “No significant level”.
